Test results: patent US8334267B2, “Mangiferin calcium salts, the method for its preparation and its use” (Hainan Deze Drug Research Co., Ltd., priority 2007, dated 2012)

How the values were obtained:
[1] = Water solubility test in distilled water; conditions: for dissolves in 30 minutes: prepared per example 8
Experimental: 5 mg mangiferin powder which is weighed up accurately is put into 50 ml distilled water, the solution is shaked acutely 30 second every 5 minutes.
100 mg mangiferin calcium powder which is obtained by the method for preparation of example 8 and weighed up accurately is put into 50 ml distilled water, the solution is shaked acutely 30 second every 5 minutes.

[2] = Stability of mangiferin calcium by preparation route; type: physicochemical; conditions: mangiferin calcium made by reacting mangiferin with calcium hydroxide; changes much in 2 hours
Experimental: 3, The water solution of mangiferin calcium which mangiferin reacted with calcium hydroxide is unstable, it changes much in 2 hours. The reaction of mangiferin with other alkaline calcium like calcium bicarbonate or calcium acetate is difficult because they are alkalescent. The productivity is very low.
5, Mangiferin monosodium (or monopotassium) is come into being first; then mangiferin monosodium (or monopotassium) reacts with water-solubility calcium salt, and mangiferin calcium is come into being. The mangiferin calcium which is obtained by this method is stability, and the productivity is high.

[3] = Pharmacokinetics of mangiferin and mangiferin calcium after oral administration; type: in vivo, rats; conditions: rats, oral 100 mg/kg
Experimental: 1, The Confect of Drug Solution
Mangiferin is suspended in Carboxymethyl cellulose sodium solution which concentration is one percent; the mangiferin concentration is 10 mg/mL, which is sample A.
All rats were fasted for 16 hours, free drinking water. The rats are oral administrated separately sample A and sample B, which dose is 100 mg/kg. The rats were taken whole blood in 5 minutes before oral administrated and 15 min, 30 min, 45 min, 60 min, 90 min, 120 min, 180 min, 240 min, 300 min, 360 min, 480 min after oral administrated. Serum is separated from these blood samples.
Serum Samples are extracted accurately 0.2 ml into centrifuge tubes separately; then 40 μL cold trichloroacetic acid solution which concentration is ten percent is added into centrifuge tubes separately. The samples are whorled 3 minutes; then centrifuged 12000 r/min for 10 minutes, 120 μl the up layer solution are extracted from centrifuge tubes and put into sample bottles separately. All the samples are detected by HPLC.
Apparatus: Angilent 1100 HPLC (American Agilent Co.), include G1312A dual pump G1313A Auto-Sampler.
Chromatographic column: discover ODS column (250 mm×6 mm, 5 μm);
The mobile phase: Acetonitrile—0.1% H3PO4 water (13:87 v/v)
Velocity of flow: 1.0 ml/min
Detection Wavelength: 254 nm.
Column temperature: 30° C.

STZ rats = experiment: Efficacy in STZ model (plasma glucose, insulin, lipids, glucose clamp); type: in vivo, wistar rats; conditions: for Glucose infusion rate: glucose clamp; for FFA / GLU / INS / TG: high fat chow
Experimental: Rosiglitazone Hydrochloride tablets were purchased from Zhejiang wanma pharmaceutical Co., Ltd. Mangiferin and mangiferin calcium salts were suspended with 3% sodium carboxymethyl cellulose.
Normal female wistar rats (SPF, 3 months age, 180-200 g) were purchased from Hainan provincial peoples hospital experimental Animal Center. The animals were kept in a room temperature (25˜28° C.) with free access of food and water. A light-dark cycle (6 a.m and 6 p.m) was strictly enforced. High fat chow is composed of 55% basic chow, 2% protein, 16% fat, 27% white sugar.
Model: After the rats were fasted for 12 hours, the rats are injected 30-35 mg/kg streptozotocin (STZ) solution once by tail vein. STZ solution is prepared to 2% concentration with […], pH 4.4 citrate-sodium citrate buffer before use. The model rats were weighed, taked out tail vein blood, tested blood glucose when the Model is done after 14 days after fasting for 12 hours, then injected 20% glucose solution ([…]) by intraperitoneal, determined blood glucose in 0.5 h, 1 h, 2 h. The rats whose glucose tolerance is abnormal were brought into experiments. Normal wistar rats were fed normal chow, model rats were fed high fat chow.
Experimental group:normal wistar rats group (n=10); after Diabetes model is succeed, the rats were randomly divided into 7 groups: Diabetes model group (n=10); mangiferin groups (20, 40, 80 mg/kg, each 10 rats); mangiferin calcium groups (10, 20, 40 mg/kg, each 10 rats); Rosiglitazone Hydrochloride group [3 mg/kg, n=10]. Test samples or vehicle control was given orally for 8 weeks. Diabetes model group and normal group were given vehicle.
Determination of insulin sensitivity (Glucose infusion rate): Using glucose clamp technique, in accordance with Konglingdong'method ? KONG Ling-dong, ZHU Liang-zheng, SONG Ju-min, etc al. Intervention Effects of Tiaozhi Jiangtang Tablet on Insulin Resistance in Rats with Diabetes Mellitus Type 2.
Determination of plasma glucose and lipid: Rats were taken whole blood after killed, then serum was separated, determined plasma glucose (GLU), insulin (INS), triglycerides (TG) and free fatty acids (FFA).
GLU and TG levels were determined using GF-D800 semi-auto chemist which was purchased from Shandong Gaomi Caihong Analytical Instrument Co., Ltd. Free fatty acids were determined using copper colorimetric determination. The kits for Determination of free fatty acids were purchased from Nanjing Jiancheng Bioengineering Institute. Insulin: radioimmunoassay (RIA), γ counter counts. insulin RIA Kit was purchased from Shandong Weifang City three-dimensional (3V) Biological company.
Statistics: The results have been calculated as mean±SD ( x±SD) and compareisons of the data have been done by t-test.

GK rats = experiment: Efficacy in GK model (plasma glucose, insulin, lipids); type: in vivo, Goto-Kakizaki rats (GK)
Experimental: Rosiglitazone Hydrochloride tablets were purchased from Zhejiang wanma pharmaceutical Co., Ltd. Mangiferin and mangiferin calcium were suspended with 3% sodium carboxymethyl cellulose before use.
Goto-Kakizaki rats (GK) (16 weeks age, ♀ ♂) were purchased from Shanghai SLAC laboratory animal Co., Ltd. The animals were kept in IVC cages with temperature (22° C.). There are two rats in each cage.
Experimental group: GK rats group (n=10); mangiferin groups (20, 40, 80 mg/kg, each 10 rats); mangiferin calcium groups (10, 20, 40 mg/kg, each 10 rats); Rosiglitazone Hydrochloride group [3 mg/kg, n=10]. Test samples or vehicle control was given orally for 30 days. GK rats group were given vehicle.
The blood specimens were taken by abdominal aorta at the end of the test. Plasma glucose (GLU), insulin (INS), triglycerides (TG), total cholesterol (TC), high density lipoprotein (HDL), low density lipoprotein (LDL) were determined
GLU, TC, TG, HDL and LDL levels were determined using GF-D800 semi-auto chemist which was purchased from Shandong Gaomi Caihong Analytical Instrument Co., Ltd. Insulin: radioimmunoassay (RIA), γ counter counts. insulin RIA Kit was purchased from Shandong Weifang City three-dimensional (3V) Biological company.
Statistics: The results have been calculated as mean±SD ( x±SD) and comparisons of the data have been done by t-test.

With `O=c1c2cc(O)c(O)cc2oc2cc([O-])c([C@@H]3O[C@H](CO)[C@@H](O)[C@H](O)[C@H]3O)c(O)c12.O=c1c2cc([O-])c(O)cc2oc2cc(O)c([C@@H]3O[C@H](CO)[C@@H](O)[C@H](O)[C@H]3O)c(O)c12.[Ca+2]` [Mangiferin calcium, mangiferin calcium] the “dissolves in 30 minutes” value ([1]; 50 mg powder in 50 ml distilled water) was “can dissolve”, the “dissolves in 30 minutes” value ([1]; 100 mg powder in 50 ml distilled water) was “can not dissolve completely” and the water solubility ([1]; distilled water, shaken 30 second every 5 minutes, 30 minutes) was “more than 1 mg/ml”. For the same compound, the “stability of water solution” value [2] was “unstable”, the bioavailability ([3]; compared with mangiferin) was “better than mangiferin” and the Cmax ([3]; serum) was 48.3 ± 0.6 µg/mL. The T1/2β ([3]; serum) was 1.02 ± 0.128 h, the “improvement of GLU, TG, FFA, INS, Glucose infusion rate in diabetic rats” value (STZ rats; 10 mg/kg orally for 8 weeks) was “significantly improves” and the Glucose infusion rate (STZ rats; 10 mg/kg orally for 8 weeks) was 17.56 ± 3.45 mg/kg · min. The Glucose infusion rate (STZ rats; 20 mg/kg orally for 8 weeks) was 24.37 ± 3.75 mg/kg · min, the Glucose infusion rate (STZ rats; 40 mg/kg orally for 8 weeks) was 26.36 ± 3.58 mg/kg · min and the FFA (STZ rats; 10 mg/kg orally for 8 weeks) was 1.54 ± 0.23 µmol/L. For the same compound, the GLU (STZ rats; 10 mg/kg orally for 8 weeks) was 8.01 ± 0.32 mmol/L, the INS (STZ rats; 10 mg/kg orally for 8 weeks) was 27.63 ± 3.46 μ IU/ml and the TG (STZ rats; 10 mg/kg orally for 8 weeks) was 2.49 ± 0.18 mmol/L. The FFA (STZ rats; 20 mg/kg orally for 8 weeks) was 1.28 ± 0.14 µmol/L, the GLU (STZ rats; 20 mg/kg orally for 8 weeks) was 7.31 ± 0.22 mmol/L and the INS (STZ rats; 20 mg/kg orally for 8 weeks) was 23.57 ± 3.68 μ IU/ml. It also gave a TG (STZ rats; 20 mg/kg orally for 8 weeks) of 1.93 ± 0.36 mmol/L, an FFA (STZ rats; 40 mg/kg orally for 8 weeks) of 1.13 ± 0.18 µmol/L and a GLU (STZ rats; 40 mg/kg orally for 8 weeks) of 6.91 ± 2.02 mmol/L. It also gave an INS (STZ rats; 40 mg/kg orally for 8 weeks) of 20.53 ± 4.42 μ IU/ml, a TG (STZ rats; 40 mg/kg orally for 8 weeks) of 1.49 ± 0.28 mmol/L and a GLU (GK rats; 10 mg/kg orally for 30 days) of 24.06 ± 1.57 mmol/L. The HDL (GK rats; 10 mg/kg orally for 30 days) was 0.81 ± 0.07 mmol/L, the INS (GK rats; 10 mg/kg orally for 30 days) was 27.48 ± 8.70 μ IU/ml and the LDL (GK rats; 10 mg/kg orally for 30 days) was 1.26 ± 0.18 mmol/L. The TC (GK rats; 10 mg/kg orally for 30 days) was 2.43 ± 0.21 mmol/L, the TG (GK rats; 10 mg/kg orally for 30 days) was 1.79 ± 0.22 mmol/L and the “improvement of TC, HDL and LDL in diabetic GK rats” value (GK rats; 10 mg/kg orally for 30 days) was “significantly improves”. It also gave a GLU (GK rats; 20 mg/kg orally for 30 days) of 23.34 ± 1.67 mmol/L, an HDL (GK rats; 20 mg/kg orally for 30 days) of 0.80 ± 0.10 mmol/L and an INS (GK rats; 20 mg/kg orally for 30 days) of 20.45 ± 6.36 μ IU/ml. It also gave an LDL (GK rats; 20 mg/kg orally for 30 days) of 1.31 ± 0.10 mmol/L, a TC (GK rats; 20 mg/kg orally for 30 days) of 2.47 ± 0.08 mmol/L and a TG (GK rats; 20 mg/kg orally for 30 days) of 1.60 ± 0.41 mmol/L. The “improvement of GLU, TC, TG, HDL and LDL and INS in diabetic GK rats” value (GK rats; 20 mg/kg orally for 30 days) was “significantly improves”, the GLU (GK rats; 40 mg/kg orally for 30 days) was 23.17 ± 1.58 mmol/L and the HDL (GK rats; 40 mg/kg orally for 30 days) was 0.80 ± 0.09 mmol/L. For the same compound, the INS (GK rats; 40 mg/kg orally for 30 days) was 16.79 ± 5.37 μ IU/ml, the LDL (GK rats; 40 mg/kg orally for 30 days) was 1.37 ± 0.11 mmol/L and the TC (GK rats; 40 mg/kg orally for 30 days) was 2.49 ± 0.07 mmol/L. The TG (GK rats; 40 mg/kg orally for 30 days) was 1.57 ± 0.39 mmol/L.
